From ChEMBL document CHEMBL2046305, “Discovery of selective menaquinone biosynthesis inhibitors against Mycobacterium tuberculosis” (J Med Chem, 2012)
In brackets after ≈: the same amount, converted by molar mass.

What was measured:
[1] = test system: Mycobacterium tuberculosis; assay: Antibacterial activity against isoniazid-resistant Mycobacterium tuberculosis H37Rv by microplate alamar blue assay; format: functional
[2] = test system: Mycobacterium tuberculosis; assay: Antibacterial activity against rifampicin-resistant Mycobacterium tuberculosis H37Rv by microplate alamar blue assay; format: functional

Row | Compound | MIC [1] [µg/mL] | MIC [2] [µg/mL]
1 | CCCCCC[C@H](CN1CCC(COc2cccc(C(=O)c3ccc(Cl)cc3)c2)CC1)OC(N)=O | 2.91 (≈ 5.81 µM) | 2.91 (≈ 5.81 µM)
2 | CCCCCC[C@H](CN1CCC(COc2cccc(/C(=N\OC)c3ccc(Cl)cc3)c2)CC1)OC(N)=O | 1.52 (≈ 2.87 µM) | 1.51 (≈ 2.85 µM)
3 | NNC(=O)c1ccncc1 [ISONIAZID] | > 8 | 0.05 (≈ 0.365 µM)
4 | CO[C@H]1/C=C/O[C@@]2(C)Oc3c(C)c(O)c4c(O)c(c(/C=N/N5CCN(C)CC5)c(O)c4c3C2=O)NC(=O)/C(C)=C\C=C\[C@H](C)[C@H](O)[C@@H](C)[C@@H](O)[C@@H](C)[C@H](OC(C)=O)[C@@H]1C [RIFAMPIN] | 0.03 (≈ 0.0365 µM) | > 4
